Experimental data as given in PMC9585581, “Developing Photoaffinity Probes for Dopamine Receptor D2 to Determine Targets of Parkinson’s Disease Drugs” (ACS Chemical Neuroscience, 2022).
“Also recorded” adds a separate entry of the source.

How the values were obtained:
rat whole brain proteins = experiment: Rat whole brain photo-cross-linking, biotin-streptavidin pulldown and LC/MS proteomics (interactome); format: binding, Sprague Dawley rat; conditions: probe 50 μM; rat whole brain minus olfactory bulb
Text: Whole brain assays were designed to assay the binding partners of 5 and 7, as well as a control for the inherent binding of the benzophenone cross-linker using molecule 16 (Figure 7). […] We chose this methodology to maximize the amount of unique hits we were likely to record. A drawback to this assay, however, is that GPCRs need highly specific extraction/purification conditions to be detected by LC-MS (or other protein detection methodologies) at the end point. Thus, by biasing our assay toward a “wide lens” to record a picture of diverse interactions, we missed the specific focus necessary to observe DRD2 and structurally related GPCRs, and we were unable to directly observe DRD2 in the proteomic analysis.
To perform the assay, the whole brain minus the olfactory bulb from an adult female Sprague Dawley rat was homogenized and treated with probes or linker control 16 at a 50 μM concentration and photo-cross-linked. A streptavidin resin was used to deplete endogenous biotin and then clicked with azido biotin, followed by streptavidin pulldown. The streptavidin beads were processed by tryptic digest, followed by LC/MS proteomic analysis. […]
To prepare the homogenate, adult rat brain tissue was microdissected and the olfactory bulb was discarded and sliced into 1 mm pieces. […] The total protein concentration was determined via BCA assay (Pierce) and adjusted to 6 mg/mL. […]

DRD2 = DRD2 (Homo sapiens, UniProt P14416); experiment: PRESTO-TANGO β-arrestin recruitment assay (HTLA cells transfected with DRD2-TANGO, luciferase readout); format: cell-based; design: TEV protease site and fused transcription factor (TANGO module); expressed in transfected cells; host or cells: HTLA cells (gift of G. Barnea), transiently transfected; conditions: for activity in β-arrestin recruitment (in words): PRESTO-TANGO; for EC50: PRESTO-TANGO β-arrestin recruitment, luciferase activity, Hill slope of 1.0; for difference in potency of probe vs parent compound: β-arrestin recruitment, probes vs their parent compounds
DRD2, sequence (P14416 whole entry, the tested form may be a part): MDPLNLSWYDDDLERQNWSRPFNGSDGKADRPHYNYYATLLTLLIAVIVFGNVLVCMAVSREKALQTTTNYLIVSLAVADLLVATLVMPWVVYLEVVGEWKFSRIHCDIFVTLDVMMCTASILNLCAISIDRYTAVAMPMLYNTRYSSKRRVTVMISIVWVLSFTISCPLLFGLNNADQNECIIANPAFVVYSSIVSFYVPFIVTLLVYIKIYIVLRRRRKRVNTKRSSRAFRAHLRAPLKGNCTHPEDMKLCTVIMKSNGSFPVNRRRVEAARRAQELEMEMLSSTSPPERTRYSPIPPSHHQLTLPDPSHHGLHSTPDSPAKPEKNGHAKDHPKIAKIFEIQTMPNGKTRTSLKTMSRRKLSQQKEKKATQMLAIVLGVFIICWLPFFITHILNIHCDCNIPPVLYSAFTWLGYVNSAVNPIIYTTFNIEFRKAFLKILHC
Text: To characterize the response of the β-arrestin effector pathway to our ligands, we used the Parallel-Receptor-ome Expression and Screening via Transcriptional Output TANGO (PRESTO-TANGO) assay developed in the Roth lab.[44],[45] This assay uses luciferase activity to monitor β-arrestin recruitment by DRD2 (Figure 3a).
Figure 3 β-Arrestin recruitment analysis. (a) PRESTO-TANGO assay schematic: a ligand binds a chimeric DRD2 receptor, which then recruits β-arrestin fused with a TEV protease. The protease cuts a site between the receptor and a fused transcription factor, which then transits to the […] to initiate transcription of a luciferase gene. The luciferase activity is subsequently quantified.
HTLA cells were a gift from the laboratory of G. Barnea and were maintained in DMEM supplemented with 10% FBS, 100 U/mL penicillin, 100 μg/mL streptomycin, 2 μg/mL puromycin, 100 μg/mL hygromycin B, and 100 μg/mL G418 in a humidified atmosphere at 37 °C in 5% CO2. On day 1, cells were plated at a density of 1 × 10^5 cells/cm^2 in a black wall, clear-bottom 96-well plate (Nunc). The following day (day 2), cells were transfected with a 10× solution of 3:1 mixture of DRD2-TANGO/Optifect Transfection Reagent (Thermo) in unsupplemented DMEM. On day 3, 1× drug stimulation solutions were prepared in filter-sterilized unsupplemented DMEM. The transfection media was shaken or aspirated from the wells, and drug stimulation solutions were gently added. On day 4, drug solutions were removed from one well every 10 s (to maintain consistency of incubation time) and 50 μL per well of Bright-Glo solution (Promega) diluted 20-fold in HBSS was added. After incubation for 2 min at room temperature, luminescence was counted with an integration time of 10 s in a Spectramax i3x plate reader (Molecular Devices).

Row | activity in β-arrestin recruitment (in words) (DRD2) | EC50 (DRD2) | difference in potency of probe vs parent compound (DRD2) | SMILES | protein hits of the pulldown (in words) (rat whole brain proteins)
1 | low micromolar activity | 0.99 µM | ~1000 × | C#CCOc1ccc(C(=O)c2ccc(CN[C@H]3CCc4nc(N)sc4C3)cc2)cc1 [Compound 7, (S)-(4-(((2-Amino-4,5,6,7-tetrahydrobenzo[d]thiazol-6-yl)amino)methyl)phenyl)(4-(prop-2-yn-1-yloxy)phenyl)methanone] | bound other protein networks including the retrograde endocannabinoid signaling pathway, neuronal nitric oxide synthase, GABA receptor components, and muscarinic acetylcholine receptor M1
2 | low micromolar activity | 1.32 µM | ~1000 × | C#CCOc1ccc(C(=O)c2ccc(CNCCc3cccc4c3CC(=O)N4)cc2)cc1 [Compound 5, 4-(2-((4-(4-(Prop-2-yn-1-yloxy)benzoyl)benzyl)amino)ethyl)indolin-2-one] | muscarinic acetylcholine receptor M1 and CB1 cannabinoid receptor-interacting protein 1; also recorded: bound other protein networks including the retrograde endocannabinoid signaling pathway, neuronal nitric oxide synthase, GABA receptor components, and muscarinic acetylcholine receptor M1
